Legend:
[1] = test system: M-IEO-derived hair cell-like cells; assay: Patch clamp of hair cell-like cells from microhole chip inner ear organoids, with or without cisplatin; type: cell-based, mouse; conditions: 68 pA−20 pA at 60 mV (so in the source)
Method: (§1) A 10 mV nominal increment was made at the holding potential of −84 mV covering the range of −124 to +54 mV for a duration of […], before returning to a constant potential of −44 mV (tail current, 50 ms). The bath solution was prepared using L-15 media (Gibco) and the pipette solution was prepared using 150 mM KCl, 5 mM HEPES, 0.1 mM CaCl2, 5 mM EGTA, 3.5 mM Mg ATP, pH 7.3 (KOH), and Osmolality 288 mmol/kg. To obtain damaged IEO, IEO was treated with […] of cisplatin on day 30 for 48 hours (100 mg cisplatin/0.33 mL (D. W) a 3 μL cisplatin +20 mL medium). To apply the IEO for patch clamp, the IEO was treated with trypsin for 5 minutes and the detached cells were detected with a patch pipette (n=4). Whole cells of IEO-derived hair cell-like cells were subjected to close-seal technique, in order to compare the electrophysiology of IEOS formed in microhole chips (hereinafter “M-IEO”) and IEOs formed in U well plates (hereinafter “U-IEO”) using patch clamp assays (FIG. 5A). In the 3D structure of the IEO, cells were isolated using single cell trypsinization. First, the morphology of mouse organs of Corti hair cells, mESC (R1/E), and IEO-derived hair cell-like cells was confirmed (FIG. 5B). […]

[2] = test system: U-IEO-derived hair cell-like cells; assay: Patch clamp of hair cell-like cells from U well plate inner ear organoids, with or without cisplatin; type: cell-based, mouse
Method: as §1

For N.N.[Cl][Pt][Cl] [cisplatin], the “loss of current, without versus with cisplatin” value [1] was 48 pA, the “electrophysiology after culture with cisplatin” value ([2]; 3-day culture with or without cisplatin) was “significantly reduced electrophysiology” and the “loss of current, without versus with cisplatin” value ([2]; U-IEO, 138 pA−28 pA (so in the source)) was 110 pA.

— US20250002846A1, “METHOD FOR CONSTRUCTION OF INNER EAR ORGANOID” (INDUSTRY FOUNDATION OF CHONNAM NATIONAL UNIVERSITY, priority 2022, published 2025)
